#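 48-hour exposure; five concentrations; linearly interpolated endpoints. At the GI50, growth is halved.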 Activity calls are given as the source filed them. Rule as the data show it: active = GI50 up to about 1.1 µM and inactive = higher.
# Tests used:
# Test in all cases: NCI anticancer screen, dose series, 48 h
# [1] = system: 786-0
# [2] = system: A549
# [3] = system: ACHN
# [4] = system: CAKI-1
# [5] = system: CCRF-CEM
# [6] = system: COLO 205
# [7] = system: DLD-1
# [8] = system: DMS-114
# [9] = system: DMS-273
# [10] = system: EKVX
# [11] = system: HCC 2998
# [12] = system: HCT-116
# [13] = system: HCT-15
# [14] = system: HL-60
# [15] = system: HOP-62
# [16] = system: HOP-92
# [17] = system: HT-29
# [18] = system: IGROV-1
# [19] = system: K562
# [20] = system: KM-20L2
# [21] = system: KM12
# [22] = system: LOX IMVI
# [23] = system: LXFL 529
# [24] = system: M14
# [25] = system: M19-MEL
# [26] = system: MOLT-4
# [27] = system: Malme-3M
# [28] = system: NCI-H226
# [29] = system: NCI-H23
# [30] = system: NCI-H460
# [31] = system: NCI-H522
# [32] = system: OVCAR-3
# [33] = system: OVCAR-4
# [34] = system: OVCAR-5
# [35] = system: OVCAR-8
# [36] = system: RPMI-8226
# [37] = system: RXF 393
# [38] = system: SF-268
# [39] = system: SF-295
# [40] = system: SF-539
# [41] = system: SK-MEL-28
# [42] = system: SK-MEL-2
# [43] = system: SK-MEL-5
# [44] = system: SK-OV-3
# [45] = system: SN12C
# [46] = system: SNB-19
# [47] = system: SNB-75
# [48] = system: SR
# [49] = system: SW-620
# [50] = system: TK-10
# [51] = system: U-251
# [52] = system: UACC-257
# [53] = system: UACC-62
# [54] = system: XF498
# [55] = system: A498
# [56] = system: BT-549
# [57] = system: DU-145
# [58] = system: Hs-578T
# [59] = system: MCF7
# [60] = system: MDA-MB-231
# [61] = system: MDA-MB-435
# [62] = system: MDA-N
# [63] = system: NCI/ADR-RES
# [64] = system: PC-3
# [65] = system: SNB-78
# [66] = system: T47D
# [67] = system: UO-31
compound,measurement,setting,value
O=C(c1ccc(Cl)cc1)c1ccc(OCCCOc2ccc(C(=O)c3ccc(Cl)cc3)cc2)cc1,GI50,[1],> 100 µM (inactive)
same,GI50,[2],> 100 µM (inactive)
same,GI50,[3],> 100 µM (inactive)
same,GI50,[4],> 100 µM (inactive)
same,GI50,[5],> 100 µM (inactive)
same,GI50,[6],> 100 µM (inactive)
same,GI50,[7],> 100 µM (inactive)
same,GI50,[8],> 100 µM (inactive)
same,GI50,[9],> 100 µM (inactive)
same,GI50,[10],> 100 µM (inactive)
same,GI50,[11],> 100 µM (inactive)
same,GI50,[12],> 100 µM (inactive)
same,GI50,[13],> 100 µM
same,GI50,[14],> 100 µM (inactive)
same,GI50,[15],> 100 µM (inactive)
same,GI50,[16],78.9 µM (inactive)
same,GI50,[17],> 100 µM (inactive)
same,GI50,[18],> 100 µM (inactive)
same,GI50,[19],> 100 µM (inactive)
same,GI50,[20],> 100 µM (inactive)
same,GI50,[21],> 100 µM (inactive)
same,GI50,[22],> 100 µM (inactive)
same,GI50,[23],> 100 µM (inactive)
same,GI50,[24],> 100 µM (inactive)
same,GI50,[25],> 100 µM (inactive)
same,GI50,[26],> 100 µM (inactive)
same,GI50,[27],> 100 µM (inactive)
same,GI50,[28],> 100 µM (inactive)
same,GI50,[29],> 100 µM (inactive)
same,GI50,[30],> 100 µM (inactive)
same,GI50,[31],> 100 µM (inactive)
same,GI50,[32],> 100 µM (inactive)
same,GI50,[33],> 100 µM (inactive)
same,GI50,[34],> 100 µM (inactive)
same,GI50,[35],> 100 µM (inactive)
same,GI50,[36],> 100 µM (inactive)
same,GI50,[37],88.3 µM (inactive)
same,GI50,[38],> 100 µM (inactive)
same,GI50,[39],> 100 µM (inactive)
same,GI50,[40],> 100 µM (inactive)
same,GI50,[41],> 100 µM (inactive)
same,GI50,[42],> 100 µM (inactive)
same,GI50,[43],> 100 µM (inactive)
same,GI50,[44],> 100 µM (inactive)
same,GI50,[45],> 100 µM (inactive)
same,GI50,[46],> 100 µM (inactive)
same,GI50,[47],33.6 µM (inactive)
same,GI50,[48],> 100 µM (inactive)
same,GI50,[49],> 100 µM (inactive)
same,GI50,[50],> 100 µM (inactive)
same,GI50,[51],> 100 µM (inactive)
same,GI50,[52],> 100 µM (inactive)
same,GI50,[53],> 100 µM (inactive)
same,GI50,[54],> 100 µM (inactive)
Cc1cc2c3ccccc3n(C)c2c2c1C(=O)C=CC2=O,GI50,[1],5.78 µM (inactive)
same,GI50,[55],17.8 µM (inactive)
same,GI50,[2],40.4 µM (inactive)
same,GI50,[3],20.9 µM (inactive)
same,GI50,[56],13.9 µM (inactive)
same,GI50,[4],14.3 µM (inactive)
same,GI50,[5],2.42 µM (inactive)
same,GI50,[6],17.9 µM (inactive)
same,GI50,[7],12.7 µM (inactive)
same,GI50,[8],6.05 µM (inactive)
same,GI50,[9],13.3 µM (inactive)
same,GI50,[57],21.7 µM (inactive)
same,GI50,[10],12 µM (inactive)
same,GI50,[11],20.2 µM (inactive)
same,GI50,[12],20 µM (inactive)
same,GI50,[13],9.33 µM
same,GI50,[14],5.24 µM (inactive)
same,GI50,[15],22.4 µM (inactive)
same,GI50,[16],12.1 µM (inactive)
same,GI50,[17],9.62 µM (inactive)
same,GI50,[58],22.3 µM (inactive)
same,GI50,[18],16.8 µM (inactive)
same,GI50,[19],5.33 µM (inactive)
same,GI50,[21],17 µM (inactive)
same,GI50,[22],17.5 µM (inactive)
same,GI50,[23],3.99 µM (inactive)
same,GI50,[24],17.8 µM (inactive)
same,GI50,[25],18.2 µM (inactive)
same,GI50,[59],4.3 µM (inactive)
same,GI50,[60],15.3 µM (inactive)
same,GI50,[61],18.9 µM (inactive)
same,GI50,[62],12.9 µM (inactive)
same,GI50,[26],6.76 µM (inactive)
same,GI50,[27],20 µM (inactive)
same,GI50,[28],21.2 µM (inactive)
same,GI50,[29],12.4 µM (inactive)
same,GI50,[30],17.1 µM (inactive)
same,GI50,[31],16.1 µM (inactive)
same,GI50,[63],33.9 µM (inactive)
same,GI50,[32],15 µM (inactive)
same,GI50,[33],7.29 µM (inactive)
same,GI50,[34],21.1 µM (inactive)
same,GI50,[35],24.8 µM (inactive)
same,GI50,[64],9.91 µM (inactive)
same,GI50,[36],1.58 µM (inactive)
same,GI50,[37],6.64 µM (inactive)
same,GI50,[38],17.2 µM (inactive)
same,GI50,[39],27.7 µM (inactive)
same,GI50,[40],21.6 µM (inactive)
same,GI50,[41],21.5 µM (inactive)
same,GI50,[42],18.1 µM (inactive)
same,GI50,[43],27.4 µM (inactive)
same,GI50,[44],21.1 µM (inactive)
same,GI50,[45],18.1 µM (inactive)
same,GI50,[46],28.5 µM (inactive)
same,GI50,[47],27 µM (inactive)
same,GI50,[65],17.4 µM (inactive)
same,GI50,[48],4.68 µM (inactive)
same,GI50,[49],10.7 µM (inactive)
same,GI50,[66],3.39 µM (inactive)
same,GI50,[50],16.5 µM (inactive)
same,GI50,[51],17.3 µM (inactive)
same,GI50,[52],13.2 µM (inactive)
same,GI50,[53],16.3 µM (inactive)
same,GI50,[67],21.8 µM (inactive)
same,GI50,[54],16.3 µM (inactive)

# From ChEMBL document CHEMBL1201862, “PubChem BioAssay data set” (2004)
